Measured values taken from patent publication US20220054494A1, “METHODS FOR TREATING BLADDER AND URETHRA DYSFUNCTION AND DISEASE” (University of Pittsburgh - Of the Commonwealth System of …, priority 2019, published 2022).
Entries after “also recorded” stand apart in the source; their conditions may differ.

Tests used:
Type in all cases: in vivo, rat
catalase = assay: Catalase activity in detrusor smooth muscle; conditions: aged rats; oral 8-AG 5 mg/kg/day, 6 weeks
p16 = assay: Western immunoblotting, senescence marker p16
Protocol: Western immunoblotting and transmission electron microscopy: Following these testing paradigms, rats were deeply anesthetized, bladders were removed, and one half of each bladder (using the smooth muscle layer) was homogenized using Lysing Matrix D in a FASTPREP-24™ instrument (MP BIOMEDICALS™, Solon, Ohio) in HBSS (5 mM KCl, 0.3 mM KH2PO4, 138 mM NaCl, 4 mM NaHO3, 0.3 mM Na2HCO3, 0.3 mM Na2HPO4, 5.6 mM glucose and 10 mM Hepes, pH 7.4) containing complete protease inhibitor cocktail (1 tablet/10 ml, ROCHE™, Indianapolis, Ind.) and phosphatase inhibitor cocktail (SIGMA®, 1:100). Whole rat kidney was also homogenized using the same procedure. After centrifugation (13000 rpm; 15 min at 4° C.), the membrane protein fraction was prepared by suspending the membrane pellets in lysis buffer containing 0.3 M NaCl, 50 mM Tris-HCl (pH 7.6), 0.5% Triton X-100, and the same concentration of protease inhibitors as above. […] The protein concentrations of the combined supernatants were determined using the PIERCE™ BCA protein assay (THERMO SCIENTIFIC™, Rockford, Ill.). […] As a loading control, total protein per sample was determined using BIO-RAD™ Stain Free SDS-PAGE gel technology. UV-activated protein fluorescence was imaged on a CHEMIDOC™ MP (BIO-RAD™). […] The volume (intensity) of each protein species was determined and normalized to total protein using Image Lab software (BIO-RAD™). […]

hydroxyproline = assay: Hydroxyproline in detrusor smooth muscle (indicator of fibrosis); conditions: aged rats; oral 8-AG 5 mg/kg/day, 6 weeks
α-SMA = assay: Western immunoblotting, α-SMA; conditions: aged rats; oral 8-AG 5 mg/kg/day, 6 weeks
Protocol: Western immunoblotting: Following the testing paradigms, rats were deeply anesthetized, bladders as well as the proximal urethra were removed, and one half of each preparation was homogenized using Lysing Matrix D in a FastPrep 24 instrument (MP Biomedicals, Solon, Ohio) in HBSS [5 mM KCl, 0.3 mM KH2PO4, 138 mM NaCl, 4 mM NaHO3, 0.3 mM Na2HCO3, 0.3 mM Na2HPO4, 5.6 mM glucose, and 10 mM Hepes, pH 7.4 containing a complete protease inhibitor cocktail (1 tablet/10 ml, ROCHE®, Indianapolis, Ind.) and a phosphatase inhibitor cocktail (SIGMA®, 1:100)]. After centrifugation (13000 rpm; 15 min at 4° C.), the membrane protein fraction was prepared by suspending the membrane pellets in lysis buffer containing 0.3 M NaCl, 50 mM Tris-HCl (pH 7.6), and 0.5% Triton X-100 and the same concentration of protease inhibitors as above. The suspensions were incubated on ice and centrifuged (13000 rpm; 15 min at 4° C.). The protein concentrations of the combined supernatants were determined using the PIERCE® BCA protein assay (THERMO SCIENTIFIC®, Rockford, Ill.). […] As a loading control, total protein per sample was determined using Bio-Rad Stain Free SDS-PAGE gel technology. UV-activated protein fluorescence was imaged on a CHEMIDOC® MP (BIO-RAD®). […] The volume (intensity) of each protein species was determined and normalized to total protein using Image Lab software (BIO-RAD®). […]

**Q.** With `Nc1nc2[nH]c(N)nc2c(=O)[nH]1` [8-AG, 8-Aminoguanine] as the molecule, how does the “catalase activity in detrusor smooth muscle” value (catalase) read?
**A.** levels similar to the younger state; also recorded: restored these biomarkers to that of a younger state

**Q.** And the “senescence marker p16 in bladder smooth muscle” value (p16; aged Fisher 344 rats, 8-AG 5 mg kg/day via drinking water, 1 month)?
**A.** restored to a younger state; also recorded: restored to levels similar to the younger state

**Q.** And the “senescence marker p16 in detrusor smooth muscle” value (p16; aged rats, oral 8-AG 5 mg/kg/day, 6 weeks)?
**A.** levels similar to the younger state; also recorded: restored these biomarkers to that of a younger state

**Q.** What about the “hydroxyproline in detrusor smooth muscle” value (hydroxyproline) of the same molecule?
**A.** levels similar to the younger state; also recorded: restored these biomarkers to that of a younger state

**Q.** And the “α-SMA expression in detrusor” value (α-SMA)?
**A.** increasing expression toward younger state; also recorded: normalized; also recorded: restored these biomarkers to that of a younger state

**Q.** What about the “α-SMA expression in urethra” value (α-SMA) of the same molecule?
**A.** increasing expression toward younger state; also recorded: normalized to a younger state
